# Patent publication US7906156B2, “CB2 receptors blocks accumulation of human hepatic myofibroblasts: a novel antifibrogenic pathway in the liver” (priority 2003, dated 2011)
# Where a name gives a salt, the structure may show the parent alone. Residues, ends and D or L forms follow the SMILES beside them. *: point of attachment. Cbz = O=C(OCc1ccccc1)*; CH2F = FC*
# Columns and labels:
# [1] = tested on: human hepatic myofibroblasts; assay: Cell viability (MTS assay) / cytotoxicity of serum-deprived hepatic myofibroblasts; type: cell-based; conditions: for IC50: 16 hours, MTS assay, read-out: half maximal decrease in cell viability
# Protocol: Cell viability. […] CellTiter 96 AQueous One Solution reagent was added to each well and absorbance was recorded at 490 nm.
# [2] = tested on: human hepatic myofibroblasts; assay: cells; type: cell-based; conditions: for effect on DNA synthesis / growth / IC50 / maximal reduction of PDGF-BB-stimulated DNA synthesis: 20 ng/ml PDGF-BB; for effect on the antiproliferative effect of THC: pretreatment before THC + PDGF-BB; for IC50: 30 hrs, read-out: half maximal inhibition (IC50) of DNA synthesis; for maximal reduction of PDGF-BB-stimulated DNA synthesis: at 500 nM
# CB2 receptors [3] = molecular target: T1, CB2 receptors (Homo sapiens, UniProt P34972); assay: forskolin-stimulated cAMP levels in CHO overexpressing CB2 receptors; type: cell-based; set-up: host or cells: CHO cells; conditions: CHO overexpressing CB2, 100 nM, 10 min
# CB1 receptors = molecular target: T2, CB1 receptors (Homo sapiens, UniProt P21554); type: cell-based
# T2 construct: host or cells: CHO cells
# caspase-3 = assay: Caspase-3-like activity on cell lysates; conditions: for effect on caspase-3 activation elicited by THC: pretreatment before THC
# COX = COX activity (PGE2 released after arachidonic acid); conditions: 1000 nM THC, 8 h
# [4] = tested on: human hepatic myofibroblasts; assay: DNA laddering and DAPI nuclear morphology; type: cell-based
# Protocol: (A) Phase-contrast analysis (Magnification ×100). […] (C) Caspase-3-like activity.
# Apoptosis assays. […] Nuclear morphology was assayed using DAPI staining.
# COX-2 = COX-2 protein induction (Western blot); conditions: 8 h
# CB2 receptors [5] = molecular target: T1, CB2 receptors; assay: [35S]GTPγS binding assay, membranes of CHO cells overexpressing CB2 receptors
# cAMP = cAMP levels in human hepatic myofibroblasts; type: cell-based; conditions: not shown
# reactive oxygen species = assay: Intracellular reactive oxygen species (DCFH-DA fluorescence); type: cell-based, human
# CB2 receptors [6] = molecular target: T1, CB2 receptors; assay: [35S]GTPγS binding assay, membranes of human hepatic myofibroblasts
# T1 sequence (P34972 whole entry): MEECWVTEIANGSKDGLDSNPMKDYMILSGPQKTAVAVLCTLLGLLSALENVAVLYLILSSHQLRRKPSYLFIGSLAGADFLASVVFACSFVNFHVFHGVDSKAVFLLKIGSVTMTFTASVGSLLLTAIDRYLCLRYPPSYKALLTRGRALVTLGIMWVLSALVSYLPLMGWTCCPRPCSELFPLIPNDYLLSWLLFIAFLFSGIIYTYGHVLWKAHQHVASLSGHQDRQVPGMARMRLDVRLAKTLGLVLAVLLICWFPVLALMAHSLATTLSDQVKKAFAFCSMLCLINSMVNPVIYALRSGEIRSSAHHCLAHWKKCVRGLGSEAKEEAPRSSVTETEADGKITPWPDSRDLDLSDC
# T2 sequence (P21554 whole entry): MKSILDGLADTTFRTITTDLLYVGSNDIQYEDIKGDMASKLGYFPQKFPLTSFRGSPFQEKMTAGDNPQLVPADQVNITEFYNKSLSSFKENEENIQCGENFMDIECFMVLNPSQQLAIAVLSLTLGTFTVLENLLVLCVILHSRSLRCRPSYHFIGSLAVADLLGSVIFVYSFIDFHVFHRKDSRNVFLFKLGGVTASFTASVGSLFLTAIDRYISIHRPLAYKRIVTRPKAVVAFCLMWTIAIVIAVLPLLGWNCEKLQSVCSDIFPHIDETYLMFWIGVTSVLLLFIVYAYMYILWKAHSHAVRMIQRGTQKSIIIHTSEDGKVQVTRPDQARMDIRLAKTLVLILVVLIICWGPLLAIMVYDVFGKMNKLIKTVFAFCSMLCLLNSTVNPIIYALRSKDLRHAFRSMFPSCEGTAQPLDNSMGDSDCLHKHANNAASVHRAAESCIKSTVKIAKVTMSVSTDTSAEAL
compound,measurement,setting,value
"CCCCC/C=C\C/C=C\C/C=C\C/C=C\CCCC(=O)NCCCl [ACEA, N-(2-Chloroethyl)-5Z,8Z,11Z,14Z-eicosatetraenamide]",cytotoxic / apoptotic effect on hepatic myofibroblasts,[1]; serum-deprived cells,not cytotoxic
same,effect on DNA synthesis / growth,[2],had no effect
same,effect on forskolin-stimulated cAMP levels,CB2 receptors [3],had no effect
same,effect on forskolin-stimulated cAMP levels,CB1 receptors,reduced
"CCCCCCC(C)(C)c1ccc([C@@H]2C[C@H](O)CC[C@H]2CCCO)c(O)c1 [CP 55940, (−)-cis-3-[2-Hydroxy-4-(1,1-dimethylheptyl)phenyl]-trans-4-(3-hydroxypropyl)cyclohexanol]",cytotoxic / apoptotic effect on hepatic myofibroblasts,[1]; serum-deprived cells,cytotoxic
[Cl-].[Mn+3].[O-]c1ccccc1C=NCCN=Cc1ccccc1[O-] [EUK 8],effect on the antiproliferative effect of THC,[2],did not affect
same,effect on caspase-3 activation elicited by THC,caspase-3,blunted
"CCCCCCC(C)(C)c1cc(O)c2c(c1)OC(C)(C)[C@@H]1CC=C(CO)C[C@@H]21 [HU-210, (6aR)-trans-3-(1,1-Dimethylheptyl)-6a,7,10,10a-tetrahydro-1-hydroxy-6,6-dimethyl-6H-dibenzo[b,d]pyran-9-methanol]",cytotoxic / apoptotic effect on hepatic myofibroblasts,[1]; serum-deprived cells,cytotoxic
"CCCn1c(C)c(C(=O)c2cccc3ccccc23)c2ccccc21 [JWH-015, (2-Methyl-1-propyl-1H-indol-3-yl)-1-naphthalenylmethanone]",cytotoxic / apoptotic effect on hepatic myofibroblasts,[1]; serum-deprived cells,apoptotic
same,IC50,[1]; serum-deprived cells,1000 nM
same,cytotoxic / apoptotic effect on hepatic myofibroblasts,"[1]; serum-deprived cells, listed as JW-015",reproduced
same,effect on DNA synthesis / growth,[2],reproduced
same,IC50,[2],150 nM
same,maximal reduction of PDGF-BB-stimulated DNA synthesis,[2],60%
"CC(=O)N[C@@H](CS)C(=O)O [NAC, N-Acetyl Cysteine]",effect on the antiproliferative effect of THC,[2],did not affect
same,effect on caspase-3 activation elicited by THC,caspase-3,blunted
"CS(=O)(=O)Nc1ccc([N+](=O)[O-])cc1OC1CCCCC1 [NS-398, N-(2-cyclohexyloxy-4-nitrophenyl)methane sulfonamide]",effect on cytotoxic effect / cell death triggered by THC,[1]; pretreatment before THC,did not affect
same,effect on the antiproliferative effect of THC,[2],reduced
same,effect on the antiproliferative effect of THC,[2]; listed as NS 398,blunted
same,effect on caspase-3 activation elicited by THC,caspase-3,did not affect
"Cc1c(C(=O)NN2CCCCC2)nn(-c2ccc(Cl)cc2Cl)c1-c1ccc(Cl)cc1 [SR 141716, N-pipéridino-5-(4-chlorophényl)-1-(2,4-dichlorophényl)-4-méthylpyrazole-3-carboxamide]",effect on apoptosis elicited by HU-210,[1],had no effect
"[2H]C([2H])([2H])CCCCc1cc(O)c2c(c1)OC(C)(C)C1CCC(C)=CC21 (stereo not drawn) [THC, 6a,7,8,10a-Tetrahydro-6,6,9-trimethyl-3-(pentyl-5,5,5-d3)-6H-dibenzo(b,d)pyran-1-ol]",COX activity,COX,stimulates COX activity
same,IC50,"[1]; Homo sapiens, serum-deprived cells",1500 nM
same,concentration giving maximal decrease in cell survival,[1]; serum-deprived cells,2 µM
same,cytotoxic / apoptotic effect on hepatic myofibroblasts,[1]; serum-deprived cells,cytotoxic effects
same,DNA laddering on agarose gel electrophoresis,[4]; 4 μM THC,dramatic DNA laddering
same,nuclear morphology (DAPI staining),[4]; 4 μM THC,condensed nuclei
same,IC50,[2]; Homo sapiens,200 nM
same,maximal reduction of PDGF-BB-stimulated DNA synthesis,[2],50%
same,induction of COX-2,COX-2,strong induction
same,concentration giving maximal activation of [35S]GTPγS binding,CB2 receptors [5],10 nM
same,cAMP levels in response to compound,cAMP,not raised
same,time to ROS production after exposure,reactive oxygen species,≤ 20 min
same,increase in production of intracellular reactive oxygen species,reactive oxygen species; 3 μM THC,1.5 fold
same,time of peak caspase-3 activity,caspase-3,4 to 6 h
same,maximal increase of caspase-3 activity,"caspase-3; 4 μM THC, 5 hr (FIG. 6C)",6.3±2 fold
same,maximal increase in caspase-3 activity,"caspase-3; time course, peak after 4-6 hr",6.7 fold
same,concentration giving maximal effect on [35S]GTPγS binding,CB2 receptors [6],100 nM
"Cc1c(C(=O)c2cccc3ccccc23)c2cccc3c2n1[C@H](CN1CCOCC1)CO3 [WIN-55.212-2, (R)-(+)-[2,3-Dihydro-5-methyl-3-(4-morpholinylmethyl)pyrrolo[1,2,3-de]-1,4-benzoxazin-6-yl]-1-naphthalenylmethanone mesylate]",cytotoxic / apoptotic effect on hepatic myofibroblasts,[1]; serum-deprived cells,cytotoxic
"COC(=O)CC(NC(=O)C(C)NC(=O)C(NC(=O)OCc1ccccc1)C(C)C)C(=O)CF (stereo not drawn) [ZVAD-fmk, Z-val-Ala-Asp (OCH3)-Fluoromethyl ketone] (Cbz-Val-Ala-Asp(OMe)-CH2F; configuration not given here)",effect on THC-induced DNA laddering,[4]; 50 μM ZVAD,blocked
same,effect on caspase-3 activation elicited by THC,caspase-3,totally blunted
"CCCCC/C=C\C/C=C\C/C=C\C/C=C\CCCC(=O)NCCO [anandamide, N-(2-Hydroxyethyl)-5Z,8Z,11Z,14Z-eicosatetraenamide]",cytotoxic / apoptotic effect on hepatic myofibroblasts,[1]; serum-deprived cells,cytotoxic
C=C(C)[C@@H]1CCC(C)=C[C@H]1c1c(O)cc(CCCCC)cc1O [cannabidiol],cytotoxic / apoptotic effect on hepatic myofibroblasts,[1]; serum-deprived cells,reproduced
same,effect on DNA synthesis / growth,[2],reproduced
CC(C)Cc1ccc(C(C)C(=O)O)cc1 (stereo not drawn) [ibuprofen],effect on the antiproliferative effect of THC,[2],blunted
same,effect on caspase-3 activation elicited by THC,caspase-3,did not affect
"N-[1S)-endo-1,3,3,-trimethyl bicyclo[2.2.1]heptan-2-yl]-5-(choloro-3-methylphenyl)-1-(4-methyl-benzyl)-pyrazole-3-carboxamide [SR 144528]",effect on apoptosis elicited by HU-210,[1],prevented
same,effect of compound alone on cell viability,[1]; without THC,had no effect
same,effect on the antiproliferative effect of THC,[2],strongly reduced
same,effect on caspase-3 activation elicited by THC,caspase-3,no activation of caspase-3
same,effect of compound alone on caspase-3-like activity,caspase-3; without THC,had no effect
